Results taken from patent US9662372B2 (priority 2013, dated 2017).
Where a SMILES comes first, the peptide text is derived from it. Where no end group is shown, it is not given here. [ ]: non-standard residue; d: D form. βAla = NCCC(=O)O

test system: C. difficile ATCC 9689; experiment: Bacterial mass in wells of PM panels (OD 750 nm); format: cell-based, Clostridium difficile; conditions: OD difference with vs without C. difficile, 72 h; nitrogen source (PM03/06/07/08)

Tyr-Ala was tested. Which “C. difficile Mass” value did it give?
Its value is 0.0331 OD (750 nm).

For γ-D-Glu-Gly, which “C. difficile Mass” value is on record?
Its value is 0.0519 OD (750 nm).

Which “C. difficile Mass” value does the source give for Lys-Trp here?
Its value is 0.006 OD (750 nm).

With His-Pro as the compound, how does the “C. difficile Mass” value read?
Its value is 0.0481 OD (750 nm).

Which “C. difficile Mass” value does the source give for `CC(C)CC(N)C(=O)NC(Cc1ccccc1)C(=O)O` (stereo not drawn) [Leu-Phe] (H-Leu-Phe-OH; configuration not given here) here?
The value was 0.0538 OD (750 nm).

How did the “C. difficile Mass” value turn out when Gly-D-Ser was run?
Its value is 0.0543 OD (750 nm).

For Ser-Pro, which “C. difficile Mass” value is on record?
Its value is 0.0472 OD (750 nm).

How did the “C. difficile Mass” value turn out when Trp-Tyr was run?
The value was 0.0451 OD (750 nm).

How did the “C. difficile Mass” value turn out when Arg-Asp was run?
Its value is 0.0444 OD (750 nm).

Which “C. difficile Mass” value does the source give for Ser-Leu here?
Its value is 0.0404 OD (750 nm).

With Lys-Phe as the compound, how does the “C. difficile Mass” value read?
The value was 0.0533 OD (750 nm).

Arg-Phe was tested. Which “C. difficile Mass” value did it give?
Its value is 0.0467 OD (750 nm).

With Gly-Arg as the compound, how does the “C. difficile Mass” value read?
Its value is 0.0403 OD (750 nm).

With Trp-Arg as the compound, how does the “C. difficile Mass” value read?
The value was 0.0628 OD (750 nm).

For Val-Ser, which “C. difficile Mass” value is on record?
The value was 0.0455 OD (750 nm).

Which “C. difficile Mass” value does the source give for Gly-Phe-Phe here?
The value was 0.2751 OD (750 nm).

For [βAla]-His, which “C. difficile Mass” value is on record?
The value was 0.0473 OD (750 nm).

For [dA]-Gly-Gly, which “C. difficile Mass” value is on record?
Its value is 0.0538 OD (750 nm).

For `NCCCCCC(=O)O` [ε-Amino-N-Caproic acid], which “C. difficile Mass” value is on record?
Its value is 0.0366 OD (750 nm).

Lys-Arg was tested. Which “C. difficile Mass” value did it give?
The value was 0.0502 OD (750 nm).

With Arg-Tyr as the compound, how does the “C. difficile Mass” value read?
The value was 0.0455 OD (750 nm).

For Lys-Asp, which “C. difficile Mass” value is on record?
Its value is 0.0525 OD (750 nm).

How did the “C. difficile Mass” value turn out when Leu-Ser was run?
Its value is 0.037 OD (750 nm).

For Val-Pro, which “C. difficile Mass” value is on record?
Its value is 0.0425 OD (750 nm).

Arg-Gln was tested. Which “C. difficile Mass” value did it give?
Its value is 0.0476 OD (750 nm).

Tyr-Tyr was tested. Which “C. difficile Mass” value did it give?
The value was 0.0415 OD (750 nm).

Which “C. difficile Mass” value does the source give for [βAla]-Gly here?
The value was 0.0389 OD (750 nm).

How did the “C. difficile Mass” value turn out when Thr-Pro was run?
Its value is 0.0355 OD (750 nm).

`O=C(O)[C@@H]1CCCN1` [L-Proline] was tested. Which “C. difficile Mass” value did it give?
Its value is 0.0394 OD (750 nm).

For Trp-Val, which “C. difficile Mass” value is on record?
Its value is 0.0276 OD (750 nm).

How did the “C. difficile Mass” value turn out when Trp-Ala was run?
The value was 0.0489 OD (750 nm).

`CC(C)C[C@H](NC(=O)[C@@H](N)CC(C)C)C(=O)O` [Leu-Leu] was tested. Which “C. difficile Mass” value did it give?
Its value is 0.0530 OD (750 nm).

Which “C. difficile Mass” value does the source give for Thr-Gln here?
Its value is 0.0403 OD (750 nm).

Lys-Ser was tested. Which “C. difficile Mass” value did it give?
Its value is 0.0426 OD (750 nm).

same assay, conditions: OD difference with vs without C. difficile, 72 h; phosphorus/sulfur source panel PM04

`NC(=O)CCCCC1CCSS1` (racemic) [D,L-Lipoamide] was tested. Which “C. difficile Mass” value did it give?
The value was 0.0265 OD (750 nm).

For `OP(O)(O)=S` [Thiophosphate], which “C. difficile Mass” value is on record?
The value was 0.0373 OD (750 nm).

Which “C. difficile Mass” value does the source give for `CS(=O)(=O)CC[C@H](N)C(=O)O` [L-Methionine Sulfone] here?
The value was 0.0446 OD (750 nm).

How did the “C. difficile Mass” value turn out when `Nc1ccn([C@@H]2O[C@@H]3COP(=O)(O)O[C@H]3[C@H]2O)c(=O)n1` [Cytidine 3′,5′-Cyclic Monophosphate] was run?
The value was 0.0106 OD (750 nm).

For `O=P(O)(O)OP(=O)(O)O` [Pyrophosphate], which “C. difficile Mass” value is on record?
Its value is 0.0075 OD (750 nm).

test system: C. difficile ATCC 9689; experiment: not given; format: cell-based, Clostridium difficile; conditions: not given

How did the “Toxin” value turn out when `NC(=O)CCCCC1CCSS1` (racemic) [D,L-Lipoamide] was run?
Its value is under 0.122 ng/mL.

How did the “Toxin” value turn out when Tyr-Ala was run?
The value was 186 ng/mL.

With γ-D-Glu-Gly as the compound, how does the “Toxin” value read?
The value was 10122 ng/mL.

Which “Toxin” value does the source give for Lys-Trp here?
The value was 5277 ng/mL.

Which “Toxin” value does the source give for His-Pro here?
Its value is 8568 ng/mL.

How did the “Effect on toxin production (in words)” value turn out when `CC(C)CC(N)C(=O)NC(Cc1ccccc1)C(=O)O` (stereo not drawn) [Leu-Phe] (H-Leu-Phe-OH; configuration not given here) was run?
The value was “toxin production inhibitor”.

And the “Toxin” value?
The value was under 0.122 ng/mL.

For Gly-D-Ser, which “Toxin” value is on record?
The value was 297 ng/mL.

Which “Toxin” value does the source give for Ser-Pro here?
The value was 7136 ng/mL.

With Trp-Tyr as the compound, how does the “Toxin” value read?
Its value is 134 ng/mL.

How did the “Toxin” value turn out when Arg-Asp was run?
The value was 10371 ng/mL.

How did the “Toxin” value turn out when `OP(O)(O)=S` [Thiophosphate] was run?
Its value is under 0.122 ng/mL.

How did the “Toxin” value turn out when Ser-Leu was run?
The value was 187 ng/mL.

For Lys-Phe, which “Toxin” value is on record?
The value was under 0.122 ng/mL.

For Arg-Phe, which “Toxin” value is on record?
Its value is 6541 ng/mL.

For Gly-Arg, which “Toxin” value is on record?
The value was 352 ng/mL.

For Trp-Arg, which “Toxin” value is on record?
The value was 6468 ng/mL.

Which “Toxin” value does the source give for Val-Ser here?
The value was under 0.122 ng/mL.

Gly-Phe-Phe was tested. Which “Toxin” value did it give?
The value was 298 ng/mL.

[βAla]-His was tested. Which “Toxin” value did it give?
The value was 8265 ng/mL.

For `CS(=O)(=O)CC[C@H](N)C(=O)O` [L-Methionine Sulfone], which “Toxin” value is on record?
The value was under 0.122 ng/mL.

How did the “Toxin” value turn out when [dA]-Gly-Gly was run?
The value was 515 ng/mL.

`NCCCCCC(=O)O` [ε-Amino-N-Caproic acid] was tested. Which “Toxin” value did it give?
Its value is 3389 ng/mL.

For Lys-Arg, which “Toxin” value is on record?
The value was 5536 ng/mL.

How did the “Toxin” value turn out when Arg-Tyr was run?
The value was 8819 ng/mL.

How did the “Toxin” value turn out when Lys-Asp was run?
Its value is 335 ng/mL.

For Leu-Ser, which “Toxin” value is on record?
Its value is 116 ng/mL.

For Val-Pro, which “Toxin” value is on record?
The value was 183 ng/mL.

Which “Toxin” value does the source give for Arg-Gln here?
Its value is 8912 ng/mL.

Tyr-Tyr was tested. Which “Toxin” value did it give?
The value was 174 ng/mL.

`Nc1ccn([C@@H]2O[C@@H]3COP(=O)(O)O[C@H]3[C@H]2O)c(=O)n1` [Cytidine 3′,5′-Cyclic Monophosphate] was tested. Which “Toxin” value did it give?
Its value is 321 ng/mL.

How did the “Toxin” value turn out when [βAla]-Gly was run?
Its value is 1547 ng/mL.

For Thr-Pro, which “Toxin” value is on record?
The value was 4772 ng/mL.

With `O=C(O)[C@@H]1CCCN1` [L-Proline] as the compound, how does the “Toxin induction (rank, in words)” value read?
The value was “highest toxin inducer in the amino acid category”.

With Trp-Val as the compound, how does the “Toxin” value read?
Its value is 184 ng/mL.

With Trp-Ala as the compound, how does the “Toxin” value read?
The value was 415 ng/mL.

Which “Effect on toxin production (in words)” value does the source give for `CC(C)C[C@H](NC(=O)[C@@H](N)CC(C)C)C(=O)O` [Leu-Leu] here?
The value was “toxin production inhibitor”.

What about the “Toxin” value of the same compound?
Its value is under 0.122 ng/mL.

For Thr-Gln, which “Toxin” value is on record?
The value was under 0.122 ng/mL.

Which “Toxin” value does the source give for `O=P(O)(O)OP(=O)(O)O` [Pyrophosphate] here?
The value was under 0.122 ng/mL.

Which “Toxin” value does the source give for Lys-Ser here?
Its value is 5105 ng/mL.
